The values below come from ChEMBL document CHEMBL4823300, “Design, synthesis and anticancer activity of sulfenylated imidazo-fused heterocycles” (Bioorg Med Chem Lett, 2021).

Active and inactive are the calls of the source. The rule behind the calls is not given here.

One may read the IC50 as the concentration needed to halve the response being measured.

In assay [1] the test system is MDA-MB-231. Put plainly: Anticancer activity against human MDA-MB-231 cells assessed as growth inhibition incubated for 48 hrs by MTT assay. Type of assay: functional, cell-based. The note with it: MDA-MB-231, 48 h.
Assay [2] concerns HepG2. Put plainly: Anticancer activity against human HepG2 cells assessed as growth inhibition incubated for 48 hrs by MTT assay. The conditions noted are these: HepG2, 48 h. Type of assay: functional, cell-based. (Tetrazolium assays rely on reduction of a dye to a coloured formazan, in cell work by metabolically active cells.)
For assay [3], the system named is HeLa. Put plainly: Anticancer activity against human HeLa cells assessed as growth inhibition incubated for 48 hrs by MTT assay. The class given is functional, cell-based.
Assay [4] deals with A549. The experiment in a line: Anticancer activity against human A549 cells assessed as growth inhibition incubated for 48 hrs by MTT assay. Type of assay: functional, cell-based. The conditions noted are these: A549, 48 h.
Assay [5] deals with U-87 MG. Put plainly: Anticancer activity against human U-87 MG cells assessed as growth inhibition incubated for 48 hrs by MTT assay. Type of assay: functional, cell-based, U-87MG ATCC.
Assay [6] has as its system SK-MEL-28. The experiment in a line: Anticancer activity against human SK-MEL-28 cells assessed as growth inhibition incubated for 48 hrs by MTT assay. The class given is functional, cell-based. The note with it: SK-MEL-28, 48 h.
Assay [7] concerns DU-145. The experiment in a line: Anticancer activity against human DU-145 cells assessed as growth inhibition incubated for 48 hrs by MTT assay. Type of assay: functional, cell-based. The conditions noted are these: DU-145, 48 h.
In assay [8] the test system is HEK293. The experiment in a line: Anticancer activity against human HEK293 cells assessed as growth inhibition incubated for 48 hrs by MTT assay. Type of assay: cell-based. The note with it: HEK293, 48 h.
Assay [9] relates to NIH3T3. The experiment in a line: Anticancer activity against mouse NIH3T3 cells assessed as growth inhibition incubated for 48 hrs by MTT assay. The class given is cell-based. The note with it: NIH3T3, 48 h.
Assay [10] has as its system HepG2. Put plainly: Cell cycle arrest in human HepG2 cells assessed as accumulation at SubG1 phase at 5 uM (reference value: 7.13%). The class given is functional.
Assay [11] concerns HepG2. The experiment in a line: Cell cycle arrest in human HepG2 cells assessed as accumulation at SubG1 phase at 10 uM (reference value: 7.13%). The class given is functional.
The test system of assay [12] is HepG2. Put plainly: Cell cycle arrest in human HepG2 cells assessed as accumulation at G0/G1 phase at 5 uM (reference value: 92.33%). Type of assay: functional.
The subject of assay [13] is HepG2. The experiment in a line: Cell cycle arrest in human HepG2 cells assessed as accumulation at G0/G1 phase at 10 uM (reference value: 92.33%). Type of assay: functional.
In assay [14] the test system is HepG2. Put plainly: Cell cycle arrest in human HepG2 cells assessed as accumulation at S phase at 5 uM (reference value: 4.66%). Type of assay: functional.
For assay [15], the system named is HepG2. Put plainly: Cell cycle arrest in human HepG2 cells assessed as accumulation at S phase at 10 uM (reference value: 4.66%). Type of assay: functional.
Assay [16] concerns HepG2. The experiment in a line: Cell cycle arrest in human HepG2 cells assessed as accumulation at G2/M phase at 5 uM (reference value: 3.72%). Type of assay: functional.
The test system of assay [17] is HepG2. The experiment in a line: Cell cycle arrest in human HepG2 cells assessed as accumulation at G2/M phase at 10 uM (reference value: 3.72%). Type of assay: functional.
Assay [18] relates to HepG2. Put plainly: Induction of apoptosis in human HepG2 cells assessed as nuclear condensation at 5 to 10 uM incubated for 48 hrs by Hoechst staining based assay relative to control. Type of assay: functional, cell-based. The conditions noted are these: dose 5-10 µM.
In assay [19] the test system is HepG2. The experiment in a line: Induction of apoptosis in human HepG2 cells assessed as decrease in mitochondrial membrane potential at 5 to 10 uM incubated for 48 hrs by JC-1 staining based assay relative to control. Type of assay: functional, cell-based. The conditions noted are these: dose 5-10 µM.
Assay [20] relates to HepG2. The experiment in a line: Induction of apoptosis in human HepG2 cells assessed as live cells at 5 uM incubated for 48 hrs by annexin V-FITC/propidium iodide (AV/PI) dual staining assay (reference value: 91.01%). Type of assay: functional.
Assay [21] concerns HepG2. The experiment in a line: Induction of apoptosis in human HepG2 cells assessed as early apoptotic cells at 5 uM incubated for 48 hrs by annexin V-FITC/propidium iodide (AV/PI) dual staining assay (reference value: 3.87%). Type of assay: functional.
In assay [22] the test system is HepG2. The experiment in a line: Induction of apoptosis in human HepG2 cells assessed as late apoptotic cells at 5 uM incubated for 48 hrs by annexin V-FITC/propidium iodide (AV/PI) dual staining assay (reference value: 4.07%). Type of assay: functional.
Assay [23] relates to HepG2. The experiment in a line: Induction of apoptosis in human HepG2 cells assessed as necrotic cells at 5 uM incubated for 48 hrs by annexin V-FITC/propidium iodide (AV/PI) dual staining assay (reference value: 1.06%). The class given is functional.
The test system of assay [24] is HepG2. The experiment in a line: Induction of apoptosis in human HepG2 cells assessed as live cells at 10 uM incubated for 48 hrs by annexin V-FITC/propidium iodide (AV/PI) dual staining assay (reference value: 91.01%). Type of assay: functional.
Assay [25] deals with HepG2. Put plainly: Induction of apoptosis in human HepG2 cells assessed as early apoptotic cells at 10 uM incubated for 48 hrs by annexin V-FITC/propidium iodide (AV/PI) dual staining assay (reference value: 3.87%). The class given is functional.
For assay [26], the system named is HepG2. Put plainly: Induction of apoptosis in human HepG2 cells assessed as late apoptotic cells at 10 uM incubated for 48 hrs by annexin V-FITC/propidium iodide (AV/PI) dual staining assay (reference value: 4.07%). Type of assay: functional.
Assay [27] has as its system HepG2. Put plainly: Induction of apoptosis in human HepG2 cells assessed as necrotic cells at 10 uM incubated for 48 hrs by annexin V-FITC/propidium iodide (AV/PI) dual staining assay (reference value: 1.06%). Type of assay: functional.

`CSc1ccc(-c2nc3ccccn3c2Sc2ccccc2)cc1`: the 50% inhibitory concentration (IC50) in assay [1] was 23.5 µM; in assay [2] it was 7.6 µM; in assay [3], 30 µM; in assay [4], 13.6 µM; in [5], 26.9 µM; in assay [6], 67.7 µM. Moreover, the IC50 in assay [7] was 52.1 µM; in assay [8], > 100 µM; in assay [9], > 100 µM. For the same compound, the Activity in assay [10] is 11.43%; in [11], 1.57%; in assay [12] it was 83.03%; in [13], 63.48%; in [14], 0.56%; in [15], 1.07%. Moreover, the Activity was found to be 10.85% in [16]; 34.97% in [17]; 65.61% in [20]; 18.94% in assay [21]; 15.17% in assay [22]; 0.28% in assay [23]. The Activity is reported as 48.22% in assay [24], 27.63% in [25], 23.93% in assay [26] and 0.22% in assay [27]. The outcome in assay [18] and in [19] was Active.
Consider `C(=C\c1nc2ccccn2c1Sc1ccccc1)/c1ccccc1`, for which the IC50 stood at 25.3 µM in assay [1]; 8.8 µM in assay [2]; 35.5 µM in [3]; 16.3 µM in [4]; 59.2 µM in assay [5]; 65.4 µM in [6]. Further, the values for the IC50 in [7], in assay [8] and in [9] were 22 µM, > 100 µM and > 100 µM, respectively. Also, the Activity in [10] was determined as 7.64%; in assay [11], 8.65%; in assay [12], 86.58%; in assay [13], 65.4%; in assay [14], 0.52%; in assay [15], 0.69%. The Activity is 9.73% in assay [16]; 30.69% in [17]; 72.25% in assay [20]; 16.1% in assay [21]; 11.31% in assay [22]; 0.34% in assay [23]. Besides, the Activity in [24] was found to be 51.78%; in assay [25] it was 25.51%; in assay [26], 22.5%; in assay [27], 0.2%. Moreover, the outcome in assay [18] and in assay [19] was Active.
Take `c1ccc(Sc2c(-c3cccs3)nc3ccccn23)cc1`: the 50% inhibitory concentration (IC50) in assay [1] is 69.2 µM; in assay [2], 17.1 µM; in assay [3], 19.9 µM; in assay [4], 16.9 µM; in assay [5], > 100 µM; in assay [6], 85.3 µM. The 50% inhibitory concentration (IC50) is 24.1 µM in [7], > 100 µM in [8] and > 100 µM in [9].
Turning to `Cc1ccc2nc(-c3ccc(Cl)cc3)c(Sc3ccccc3)n2c1`, the IC50 in assay [1] was 94.5 µM; in assay [2], 63.1 µM; in [3] it was 79.9 µM; in assay [4], 71.5 µM; in [5], > 100 µM; in assay [6] it was 81.5 µM. For the same compound, the half-maximal inhibitory concentration (IC50) in assay [7] is 95.1 µM; in assay [8], > 100 µM; in assay [9] it was > 100 µM.
Take `Cc1ccc(-c2nc3ccc(C)cn3c2Sc2ccccc2)cc1`: the concentration for half-maximal inhibition (IC50) in assay [1] came to 38 µM; in [2], 14.6 µM; in assay [3], 65.2 µM; in assay [4], 23.8 µM; in assay [5], 82.1 µM; in [6], 95.7 µM. Moreover, the IC50 was 57.7 µM in assay [7], > 100 µM in assay [8] and > 100 µM in [9].
`CCc1ccc(-c2nc3ccccn3c2Sc2ccccc2)cc1`: the half-inhibitory concentration (IC50) in [1] is > 100 µM; in [2], 50.2 µM; in [3], 52.1 µM; in assay [4] it was 56.2 µM; in assay [5], 61.7 µM; in assay [6], > 100 µM. The IC50 in [7] was 84.5 µM; in [8] it was > 100 µM; in assay [9], > 100 µM.
As to `COc1ccc(-c2nc3ccccn3c2Sc2ccccc2)cc1`, the IC50 is > 100 µM in [1]; 54.2 µM in assay [2]; > 100 µM in [3]; 58.4 µM in [4]; > 100 µM in [5]; 83.9 µM in assay [6]. Moreover, the half-inhibitory concentration (IC50) was 76.8 µM in assay [7], > 100 µM in assay [8] and 91.7 µM in assay [9].
`Clc1ccc(-c2nc3ccccn3c2Sc2ccccc2)cc1`: the IC50 in [1] turned out to be 24.5 µM; in assay [2], 13.9 µM; in [3] it was 62 µM; in assay [4], 22 µM; in assay [5] it was 30.2 µM; in assay [6] it was 73.1 µM. Further, the figures for the IC50 in [7], in [8] and in assay [9] were 30.7 µM, > 100 µM and > 100 µM, respectively.
For `c1ccc(Sc2c(-c3ccccc3)nc3sc4ccccc4n23)cc1`, the IC50 in assay [1] stood at 54.9 µM; in assay [2] it was 22.3 µM; in assay [3], 34.2 µM; in [4], 28.1 µM; in [5], 62.6 µM; in assay [6] it was 63.2 µM. Further, the figures for the 50% inhibitory concentration (IC50) in [7], in [8] and in assay [9] were 45 µM, > 100 µM and > 100 µM, respectively.
`c1ccc(Sc2c(-c3cccc4ccccc34)nc3ccccn23)cc1`: the IC50 in assay [1] was 69.3 µM; in [2] it was 9.9 µM; in [3], 33.1 µM; in assay [4] it was 17.9 µM; in assay [5], > 100 µM; in assay [6], > 100 µM. Moreover, the half-inhibitory concentration (IC50) was 60.6 µM in [7], > 100 µM in assay [8] and > 100 µM in [9]. Besides, the Activity is reported as 3.7% in [10]; 8.52% in assay [11]; 86.33% in assay [12]; 70.35% in assay [13]; 2.54% in [14]; 0.36% in assay [15]. Besides, the Activity was 7.29% in assay [16]; 25.53% in assay [17]; 77.51% in assay [20]; 10.32% in [21]; 11.9% in [22]; 0.26% in assay [23]. The Activity in assay [24] worked out at 55.27%; in assay [25], 25.45%; in [26] it was 18.94%; in assay [27], 0.34%. Also, the result in assay [18] and in assay [19] was Active.
For the compound `c1ccc(Sc2c(-c3ccsc3)nc3ccccn23)cc1`, the IC50 in [1] came out at 62.8 µM; in [2], 49.6 µM; in [3], 76 µM; in assay [4] it was 72.9 µM; in assay [5] it was 58.6 µM; in [6] it was 69.3 µM. Besides, the results for the IC50 in assay [7], in assay [8] and in assay [9] were 85.9 µM, 91.7 µM and 94.1 µM, respectively.
On to `Cc1ccc(-c2nc3ccccn3c2Sc2ccccc2)cc1`, for which the IC50 in [1] was > 100 µM; in [2], 67.9 µM; in assay [3], 86.7 µM; in assay [4], 94.3 µM; in assay [5] it was > 100 µM; in [6], > 100 µM. Besides, the half-inhibitory concentration (IC50) in assay [7] was 83.3 µM; in assay [8], > 100 µM; in assay [9], > 100 µM.
